The values that follow are results of earlier work, collected in patent EP4374853A1, “SOLID FORMULATION OF ENZALUTAMIDE” (Lotus Pharmaceutical Co., Ltd., priority 2022, dated 2024).

For data set [1] the following is noted: between pH 1-11.

In the case of `CNC(=O)c1ccc(N2C(=S)N(c3ccc(C#N)c(C(F)(F)F)c3)C(=O)C2(C)C)cc1F` [Enzalutamide, 4-{3-[4-cyano-3-(trifluoromethyl)phenyl]-5,5-dimethyl-4-oxo-2-sulfanylideneimiidazolidin-1-yl}-2-fluoro-N-methylbenzymide], the Permeability result is listed as “high permeability”. Also, the “Solubility in aqueous media” value in data set [1] is “practically insoluble”.
